Reference: US8263598B2, “Substituted sulfonamide compounds” (Gruenenthal GmbH, priority 2008, dated 2012)

Tests used:
[1] = biological target: T1, B1R receptor of rats (rB1R) (Rattus norvegicus, UniProt P97583); experiment: FLIPR Ca2+ assay on rat bradykinin 1 receptor (CHO K1 rB1R cells); format: cell-based; conditions: test substance 10 μM; CHO K1 cells with B1R gene of rats; agonist Des-Arg9-bradykinin 100 nM; compared to maximum achievable inhibition
T1 construct: host or cells: CHO K1 cells
T1 sequence (P97583 1-337): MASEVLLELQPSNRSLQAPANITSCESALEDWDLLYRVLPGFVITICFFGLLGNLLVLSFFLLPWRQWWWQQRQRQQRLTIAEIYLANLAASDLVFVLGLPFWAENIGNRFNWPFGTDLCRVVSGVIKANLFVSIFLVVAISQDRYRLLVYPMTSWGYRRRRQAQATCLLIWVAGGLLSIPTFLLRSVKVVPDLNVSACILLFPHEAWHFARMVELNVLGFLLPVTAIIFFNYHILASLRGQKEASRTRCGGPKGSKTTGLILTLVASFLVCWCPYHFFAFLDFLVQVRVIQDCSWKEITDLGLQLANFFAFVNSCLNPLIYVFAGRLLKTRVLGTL
In short: (§1)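 CHO K1 cells stably expressing human or rat B1R were loaded with Fluo-4 and tested at 10 μM compound. Ca²⁺ signal was read in FLIPR as % activation versus agonist. After 10 min, agonist was added (hB1R: Lys-Des-Arg9-bradykinin 0.5 nM; rB1R: Des-Arg9-bradykinin 100 nM), and % inhibition was taken relative to maximum achievable inhibition.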

[2] = biological target: T2, human B1R receptor (hB1R) (Homo sapiens, UniProt P46663); experiment: FLIPR Ca2+ assay on human bradykinin 1 receptor (CHO K1 hB1R cells); format: cell-based; conditions: test substance 10 μM; CHO K1 cells with human B1R gene; agonist Lys-Des-Arg9-bradykinin 0.5 nM; compared to maximum achievable inhibition
T2 construct: host or cells: CHO K1 cells
T2 sequence (P46663 1-353): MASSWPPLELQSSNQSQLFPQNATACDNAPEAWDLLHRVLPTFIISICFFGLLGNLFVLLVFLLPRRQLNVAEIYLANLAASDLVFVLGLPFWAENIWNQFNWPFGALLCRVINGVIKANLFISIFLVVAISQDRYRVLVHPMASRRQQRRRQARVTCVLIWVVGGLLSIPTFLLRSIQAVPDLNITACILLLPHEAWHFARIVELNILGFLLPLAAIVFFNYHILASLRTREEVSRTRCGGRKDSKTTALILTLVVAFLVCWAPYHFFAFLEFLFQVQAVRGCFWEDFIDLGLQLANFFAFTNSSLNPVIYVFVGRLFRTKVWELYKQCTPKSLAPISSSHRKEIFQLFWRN
In short: as §1

| SMILES | inhibition at 10 µM [1] [%] | inhibition at 10 µM [2] [%] |
| --- | --- | --- |
| COc1cc(C)c(S(=O)(=O)N(C)CCOCC(=O)N2CCn3c(CN4CCOCC4)ccc3C2)c(C)c1 [Example 7, 4-methoxy-N,2,6-trimethyl-N-(2-(2-(6-(morpholinomethyl)-3,4-dihydropyrrolo[1,2-a]pyrazin-2(1H)-yl)-2-oxoethoxy)ethyl)benzenesulfonamide] | 99 | 101 |
| Cc1cc(C)c(S(=O)(=O)N(C)CCOCC(=O)N2CCn3cccc3C2c2cccnc2)c(C)c1 (stereo not drawn) [Example 67, N,2,4,6-tetramethyl-N-(2-(2-oxo-2-(1-(pyridin-3-yl)-3,4-dihydropyrrolo[1,2-a]pyrazin-2(1H)-yl)ethoxy)ethyl)benzenesulfonamide] | 100 | 99 |
| COc1cc(C)c(S(=O)(=O)N(C)CCOCC(=O)N2CCn3cccc3C2c2ccc(F)c(F)c2)c(C)c1 (stereo not drawn) [Example 57, N-(2-(2-(1-(3,4-difluorophenyl)-3,4-dihydropyrrolo[1,2-a]pyrazin-2(1H)-yl)-2-oxoethoxy)ethyl)-4-methoxy-N,2,6-trimethylbenzenesulfonamide] | 99 | 102 |
| COc1c(C)cc(S(=O)(=O)N(C)CCOCC(=O)N2CCn3cccc3C2c2ccc(C(F)(F)F)cc2F)c(C)c1C (stereo not drawn) [Example 39, N-(2-(2-(1-(2-fluoro-4-(trifluoromethyl)phenyl)-3,4-dihydropyrrolo[1,2-a]pyrazin-2(1H)-yl)-2-oxoethoxy)ethyl)-4-methoxy-N,2,3,5-tetramethyl-benzenesulfonamide] | 80 | 35 |
| COc1cc(C)c(S(=O)(=O)N(CCOCC(=O)N2CCn3c(CN4CCCC4)ccc3C2c2ccccc2)Cc2ccccc2)c(C)c1 (stereo not drawn) [Example 127, N-benzyl-4-methoxy-2,6-dimethyl-N-(2-(2-oxo-2-(1-phenyl-6-(pyrrolidin-1-ylmethyl)-3,4-dihydropyrrolo[1,2-a]pyrazin-2(1H)-yl)ethoxy)ethyl)benzene-sulfonamide] | 102 | 99 |
| COc1cc(C)c(S(=O)(=O)N(CCOCC(=O)N2CCn3c(CN(C)C)ccc3C2Cc2ccccc2)Cc2ccccc2)c(C)c1C (stereo not drawn) [Example 118, N-benzyl-N-(2-(2-(1-benzyl-6-((dimethylamino)methyl)-3,4-dihydropyrrolo[1,2-a]pyrazin-2(1H)-yl)-2-oxoethoxy)ethyl)-4-methoxy-2,3,6-trimethylbenzene-sulfonamide] | 96 | 96 |
| COc1cc(C)c(S(=O)(=O)N(C)CCOCC(=O)N2CCn3cccc3C2c2ccc(C(C)(C)C)cc2)c(C)c1 (stereo not drawn) [Example 64, N-(2-(2-(1-(4-tert-butylphenyl)-3,4-dihydropyrrolo[1,2-a]pyrazin-2(1H)-yl)-2-oxoethoxy)ethyl)-4-methoxy-N,2,6-trimethylbenzenesulfonamide] | 99 | 100 |
| COc1cc(C)c(S(=O)(=O)N(CCOCC(=O)N2CCn3c(CN(C)C)ccc3C2c2ccccc2)CC(C)C)c(C)c1C (stereo not drawn) [Example 91, N-(2-(2-(6-((dimethylamino)methyl)-1-phenyl-3,4-dihydropyrrolo[1,2-a]pyrazin-2(1H)-yl)-2-oxoethoxy)ethyl)-N-isobutyl-4-methoxy-2,3,6-trimethylbenzene-sulfonamide] | 103 | 103 |
| COc1cc(C)c(S(=O)(=O)N(C)CCOCC(=O)N2CCn3cccc3C2c2cccc(F)c2)c(C)c1 (stereo not drawn) [Example 59, N-(2-(2-(1-(3-fluorophenyl)-3,4-dihydropyrrolo[1,2-a]pyrazin-2(1H)-yl)-2-oxoethoxy)ethyl)-4-methoxy-N,2,6-trimethylbenzenesulfonamide] | 99 | 95 |
| COc1cc(C)c(S(=O)(=O)N(CCOCC(=O)N2CCn3c(CN(C)C)ccc3C2c2cccs2)CC(C)C)c(C)c1C (stereo not drawn) [Example 98, N-(2-(2-(6-((dimethylamino)methyl)-1-(thiophen-2-yl)-3,4-dihydropyrrolo[1,2-a]pyrazin-2(1H)-yl)-2-oxoethoxy)ethyl)-N-isobutyl-4-methoxy-2,3,6-trimethyl-benzenesulfonamide] | 102 | 101 |
| Cc1cc(C)c(S(=O)(=O)N(C)CCOCC(=O)N2CCn3c(CN(C)C)ccc3C2Cc2ccccc2)c(C)c1 (stereo not drawn) [Example 143, N-(2-(2-(1-benzyl-6-((dimethylamino)methyl)-3,4-dihydropyrrolo[1,2-a]pyrazin-2(1H)-yl)-2-oxoethoxy)ethyl)-N,2,4,6-tetramethylbenzenesulfonamide] | 99 | 100 |
| COc1cc(C)c(S(=O)(=O)N(C)CCOCC(=O)N2CCn3c(CN4CCOCC4)ccc3C2c2ccccc2)c(C)c1C (stereo not drawn) [Example 150, 4-methoxy-N,2,3,6-tetramethyl-N-(2-(2-(6-(morpholinomethyl)-1-phenyl-3,4-dihydropyrrolo[1,2-a]pyrazin-2(1H)-yl)-2-oxoethoxy)ethyl)benzenesulfonamide] | 103 | 103 |
| COc1ccc(C2c3cccn3CCN2C(=O)COCCN(CC(C)C)S(=O)(=O)c2c(C)cc(OC)c(C)c2C)cc1 (stereo not drawn) [Example 22, N-isobutyl-4-methoxy-N-(2-(2-(1-(4-methoxyphenyl)-3,4-dihydropyrrolo[1,2-a]pyrazin-2(1H)-yl)-2-oxoethoxy)ethyl)-2,3,6-trimethylbenzenesulfonamide] | 97 | 53 |
| Cc1cc(C)c(S(=O)(=O)N(C)CCOCC(=O)N2CCn3c(CN(C)C)ccc3C2c2ccccc2)c(C)c1 (stereo not drawn) [Example 139, N-(2-(2-(6-((dimethylamino)methyl)-1-phenyl-3,4-dihydropyrrolo[1,2-a]pyrazin-2(1H)-yl)-2-oxoethoxy)ethyl)-N,2,4,6-tetramethylbenzenesulfonamide] | 103 | 102 |
| COc1cc(C)c(S(=O)(=O)N(CCOCC(=O)N2CCn3cccc3C2c2ccc(Cl)nc2)Cc2ccccc2)c(C)c1C (stereo not drawn) [Example 42, N-benzyl-N-(2-(2-(1-(6-chloropyridin-3-yl)-3,4-dihydropyrrolo[1,2-a]pyrazin-2(1H)-yl)-2-oxoethoxy)ethyl)-4-methoxy-2,3,6-trimethylbenzenesulfonamide] | 91 | 33 |
| CCC1c2cccn2CCN1C(=O)COCCN(C)S(=O)(=O)c1cc(C)c(OC)c(C)c1C (stereo not drawn) [Example 114, N-(2-(2-(1-ethyl-3,4-dihydropyrrolo[1,2-a]pyrazin-2(1H)-yl)-2-oxoethoxy)ethyl)-4-methoxy-N,2,3,5-tetramethylbenzenesulfonamide] | 42 | 80 |
| COc1cc(C)c(S(=O)(=O)N(C)CCOCC(=O)N2CCn3cccc3C2c2cccc(F)c2)c(C)c1C (stereo not drawn) [Example 87, N-(2-(2-(1-(3-fluorophenyl)-3,4-dihydropyrrolo[1,2-a]pyrazin-2(1H)-yl)-2-oxoethoxy)ethyl)-4-methoxy-N,2,3,6-tetramethylbenzenesulfonamide] | 100 | 101 |
| O=C(C[C@@H](NS(=O)(=O)c1ccc2ccccc2c1)c1ccccc1)N1CCn2c(nc(CN3CCCCC3)c2Cl)C1 [Example 5, (R)-N-(3-(3-chloro-2-(piperidin-1-ylmethyl)-5,6-dihydroimidazo[1,2-a]pyrazin-7(8H)-yl)-3-oxo-1-phenylpropyl)naphthalene-2-sulfonamide] | 97 | 99 |
| COc1cc(C)c(S(=O)(=O)N(CCOCC(=O)N2CCn3ccnc3C2)CC(C)C)c(C)c1C [Example 21, N-(2-(2-(5,6-dihydroimidazo[1,2-a]pyrazin-7(8H)-yl)-2-oxoethoxy)ethyl)-N-isobutyl-4-methoxy-2,3,6-trimethylbenzenesulfonamide] | 100 | 31 |
| COc1cc(C)c(S(=O)(=O)N(C)CCOCC(=O)N2CCn3cc(Cc4ccncc4)nc3C2)c(C)c1 [Example 179, 4-Methoxy-N,2,6-trimethyl-N-(2-(2-oxo-2-(2-(pyridin-4-ylmethyl)-5,6-dihydroimidazo[1,2-a]pyrazin-7(8H)-yl)ethoxy)ethyl)benzenesulfonamide] | 100 | 100 |
| COc1cc(C)c(S(=O)(=O)N(C)CCOCC(=O)N2CCn3c(CN(C)C)ccc3C2c2cccs2)c(C)c1 (stereo not drawn) [Example 17, N-(2-(2-(6-((dimethylamino)methyl)-1-(thiophen-2-yl)-3,4-dihydropyrrolo[1,2-a]pyrazin-2(1H)-yl)-2-oxoethoxy)ethyl)-4-methoxy-N,2,6-trimethylbenzene-sulfonamide] | 102 | 102 |
